From article PMC8419995, “In vitro and in vivo efficacy of thiacloprid against Echinococcus multilocularis” (Parasites & Vectors, 2021)

What was measured:
[1] = system: IL-2, IL-4, IL-10 and IgE; test: ELISA of cytokines and IgE in infected mice; assay type: in vivo; conditions: infected BALB/c mice, 6 weeks oral treatment
Procedure: In vitro-grown metacestode vesicles were pressed through a 500 µm mesh and washed three times with sterile PBS. The parasite tissue was then taken up in an equal volume of sterile PBS. Each mouse was intraperitoneally injected with 200 μl suspension. Seven mice were injected with 200 μl PBS as the control group. Twenty-eight infected mice were randomly distributed into four groups (7 mice/group): the untreated group was not administered any drug; the ABZ group was treated with ABZ orally (100 mg/kg/day); and the Thia15 group and Thia30 group received thiacloprid orally (15 mg/kg/day and 30 mg/kg/day). Treatments of mice started 2 weeks post-infection, and treatments were administered daily for 6 weeks. After 6 weeks of treatment, whole blood via the orbital sinus was collected from mice and the animals were euthanized by CO2. Blood samples were incubated at 37 °C for 1 h and centrifuged at 3500 rpm for 10 min at 4 °C. The serum was harvested and stored at –20 °C for IL-2, IL-4, IL-10 and IgE detection. All metacestode tissues were collected, and the total wet weight of metacestodes per mice was determined. Furthermore, the content of cytokines in microcyst fluid was detected by enzyme-linked immunosorbent assay (ELISA). Several metacestode tissue specimens were processed for transmission electron microscopy (TEM) and histopathological experiments.
ELISA was employed to detect serum IL-2, IL-4, IL-10 and IgE following the manufacturer's instructions. Mouse collagen I and collagen III ELISA kits were used to measure the levels of collagen I and collagen III in the cell culture supernatant after intervention with thiacloprid. All ELISA kits were provided by Elabscience Biotechnology Co., Ltd., Wuhan, China. The OD value at 450 nm was read with a Tecan Infinite M200 PRO enzyme reader (Männedorf, Switzerland), and the concentration was calculated according to the standard curve.

[2] = system: E. multilocularis protoscoleces and germinal cells; test: Glucose consumption (2-deoxyglucose uptake); assay type: cell-based, Echinococcus multilocularis
Procedure: Glucose consumption in E. multilocularis protoscoleces and germinal cells was detected using the Screen Quest Colorimetric Glucose Uptake Assay Kit (AAT Bioquest, Sunnyvale, CA, USA). The newly separated protoscoleces were washed twice with Krebs–ringer phosphate HEPES (KRPH) buffer and then resuspended in 1 ml glucose uptake buffer for 1 h. Each well contained about 200 protoscoleces. Isolated E. multilocularis germinal cells were resuspended with serum-free DMEM and cultured overnight in nitrogen at 37 °C. Germinal cells were then washed twice with KPRH buffer and resuspended in 90 μl glucose uptake buffer for 1 h. Subsequently, the protoscoleces and germinal cells were added with 10 μl thiacloprid (5 μM) for 1 h, and treated with 10 μl 2-deoxyglucose (2DG) for 1 h. The germinating cells treated with thiacloprid were labeled with mitochondria red fluorescent probe (Beyotime, Shanghai, China) and the percentage of living cells was measured by flow cytometry. The protoscoleces and germinal cells were washed twice with KRPH buffer and then lysed with 25 μl acidic lysis buffer in an Eppendorf tube (EP) for 30 min. A neutralizing buffer was added to each well and left at room temperature for 20 min to neutralize the lysate. […] Lastly, the mixture was transferred to a 96-well cell culture plate and the absorbance was measured at 570 nm using an Infinite M200 PRO reader (Tecan). […]

[3] = system: collagen I and III, MMP1, MMP3, MMP9, MMP13; test: Collagen and MMP expression in the host-lesion microenvironment (TEM, Sirius red, qPCR, western blot); assay type: in vivo; conditions: infected BALB/c mice, 6 weeks oral treatment
Procedure: The metacestodes were fixed with 4% paraformaldehyde and embedded in paraffin to make sections with a thickness of […]. The sections were dewaxed with water, stained with Picrosirius red for 10 min, rinsed and dehydrated with anhydrous ethanol, and sealed with neutral balsam after the xylene was transparent. Each section of 400× visual field image was randomly collected. The ratio of the area of all images collected to the area of the visual field was measured using the ImageJ analysis system, and the percentage of collagen fibre was calculated.
The variations in the microstructure of the protoscoleces or metacestodes were observed under an electron microscope. […] They were washed twice in PBS and then fixed for 3 h with 2.5% glutaraldehyde (pH = 7.2); next, they underwent 2 h post-fixation in 2% OsO4 (SPI-CHEM, West Chester, PA, USA). Subsequently, the samples were washed in double-distilled water and treated with 1% uranyl acetate for 25 min. After the samples were washed again in double-distilled water, dehydration was conducted in ethanol at continuous gradients (30–50–70–80–90–95–100%) over a period of 10 min. For SEM analysis, the dehydrated samples were dipped into hexamethyldisiloxane and then air-dried in a fume hood. The sample was observed under a Hitachi SU8100 scanning electron microscope (Tokyo, Japan) after gold spraying. For TEM analysis, the dehydrated samples passed through a dehydrating agent, and an epoxy resin (SPI-CHEM) permeated and polymerized at 60 °C overnight. A 50-nm ultra-thin section was prepared and then loaded on a 300-mesh copper grid. It was stained with uranyl acetate and lead citrate (SPI-CHEM). The sample was observed under a Hitachi HT7700 transmission electron microscope. To reduce the bias, electron microscopy was observed by professionals in the case of an unknown group.
Total RNA was extracted with TRIzol Reagent (Thermo Fisher Scientific, Waltham, MA, USA) according to the manufacturer’s instructions. The purity and concentrations of RNA were quantified using NanoDrop 2000 absorbance measurements at 260/280 nm. Total RNA was converted into cDNA sequences using the FastKing gDNA Dispelling RT SuperMix Kit (TIANGEN Biotech), and RT-qPCR was performed using the RealUniversal Color PreMix Kit (TIANGEN Biotech) on an ABI QuantStudio 5 system (Applied Biosystems, Waltham, MA, USA). The specific primers are shown in Additional file 4: Table S1. The PCR cycling conditions were as follows: pre-denaturation at 95 °C for 15 min followed by 40 cycles at 95 °C for 10 s and 60 °C for 34 s. The relative mRNA expression levels were quantified using the 2^−ΔΔCT method. RPS18 served as an internal control.
A total protein extraction kit (Solarbio) was used to extract cell or tissue total protein. The protein concentration was determined by the protein quantitative assay kit (Thermo Fisher Scientific). Then, electrophoresis was performed with 20–50 μg of protein sample. The protein was separated by sodium dodecyl sulfate polyacrylamide gel electrophoresis (SDS-PAGE) and transferred to a 0.22 μm PVDF membrane (Merck Millipore, Darmstadt, Germany). The PVDF membrane was blocked with 5% of nonfat powdered milk in Tris-buffered saline Tween 20 (TBST) for 1 h at room temperature. The membrane incubation with primary antibodies was performed at 4 °C overnight. The antibody information is listed in Additional file 5: Table S2. The membrane was washed with TBST and incubated with HRP-labeled secondary antibodies (1:5000, Abclonal, Wuhan, China) for 1 h at room temperature. Blotted membranes were visualized using enhanced chemiluminescence reagents (Thermo Fisher Scientific). Protein expression was depicted as the intensity of each protein relative to that of β-actin using ImageJ software.

N#C/N=C1\SCCN1Cc1ccc(Cl)nc1 [thiacloprid]
Expression of IL-2, IL-4 and IL-10 in microcyst fluid [1]: upregulated | Expression of IL-2, IL-4 and IL-10 in serum compared with the untreated group [1]: upregulated | Expression of IgE in serum compared with the untreated group [1]: downregulated | Uptake of 2-DG by protoscoleces and germinal cells ([2]; 5 μM, 1 h): reduced uptake | Viability of protoscoleces and germinal cells ([2]; treatment for 1 h): not affected | Collagen fiber deposition in the host-lesion microenvironment (TEM) [3]: can promote | mRNA expression of MMP1, MMP3, MMP9 and MMP13 in the microenvironment ([3]; qPCR): significantly inhibited | mRNA and protein expression levels of collagen I and III in the host-lesion microenvironment ([3]; qPCR, western blot): increased | Protein expression levels of MMP1, MMP3, MMP9 and MMP13 ([3]; western blot): decreased
